Measurements from US10294202B2, “Pyrrolidinones as herbicides” (FMC Corporation, priority 2013, dated 2019).
Read-outs that look alike come from different tables or passages of the source.

What was measured:
ducksalad = experiment: Test C flooded paddy test; assay type: in vivo, Heteranthera limosa; details: Flood
Outline: (§1)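 Visual ratings from 0, no effect, to 100, complete control, were made against untreated controls after 13–15 greenhouse days. Compounds had gone straight into paddy water 3 cm above the soil, kept at that depth, on 2-leaf-stage plants.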

barnyardgrass = experiment: Test C flooded paddy test; assay type: in vivo, Echinochloa crus-galli; details: Flood
Outline: as §1

velvetleaf = experiment: Test A pre-/postemergence herbicide test; assay type: in vivo, Abutilon theophrasti; details: for Velvetleaf plant response rating: Preemergence, visual rating on 0 to 100 scale (0 no effect, 100 complete control)
Outline: (§2)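 Scoring was visual, relative to untreated controls, on a 0–100 scale after about 10 greenhouse days. Preemergence treatment used a directed soil spray over seeded loam/sand; postemergence treatment targeted one- to two-leaf plants of 2–10 cm.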

morningglory = experiment: Test A pre-/postemergence herbicide test; assay type: in vivo, Ipomoea spp.; details: for Morningglory plant response rating: Preemergence, visual rating on 0 to 100 scale (0 no effect, 100 complete control)
Outline: as §2

rice = experiment: Test C flooded paddy test; assay type: in vivo, Oryza sativa; details: Flood
Outline: as §1

sedge, umbrella = experiment: Test C flooded paddy test; assay type: in vivo, Cyperus difformis; details: Flood
Outline: as §1

ryegrass, Italian = experiment: Test A pre-/postemergence herbicide test; assay type: in vivo, Lolium multiflorum
Outline: as §2

ragweed = experiment: Test A pre-/postemergence herbicide test; assay type: in vivo, Ambrosia elatior
Outline: as §2

blackgrass = experiment: Test A postemergence herbicide test; assay type: in vivo, Alopecurus myosuroides
Outline: (§3)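 Potted in loam soil/sand blend; postemergence application at 1–2 leaf stage (2–10 cm). Greenhouse ~10 d. Visual injury vs untreated, 0–100 scale; 100 = complete control.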

galium = experiment: Test A postemergence herbicide test; assay type: in vivo, Galium aparine
Outline: as §3

[1] = 31 g ai/ha, scale of 0 to 100 where 0 is no effect and 100 is complete control, 13 to 15 days
[2] = 62 g ai/ha, scale of 0 to 100 where 0 is no effect and 100 is complete control, 13 to 15 days
[3] = 125 g ai/ha, scale of 0 to 100 where 0 is no effect and 100 is complete control, 13 to 15 days
[4] = Postemergence, 125 g ai/ha, 0 to 100 scale, 0 no effect, 100 complete control
[5] = Postemergence, 500 g ai/ha, 0 to 100 scale (0 no effect, 100 complete control)
[6] = preemergence, 500 g ai/ha, 0 to 100 scale
[7] = Postemergence, 125 g ai/ha, visual rating on 0 to 100 scale (0 no effect, 100 complete control), approx. 10 days
[8] = Preemergence, 125 g ai/ha, 0 to 100 scale where 0 is no effect and 100 is complete control
[9] = preemergence, 500 g ai/ha, 0 to 100 scale, 0 is no effect and 100 is complete control
[10] = 125 g ai/ha, 0 to 100 scale, 0 is no effect, 100 is complete control
[11] = 500 g ai/ha, 0 to 100 scale (0 no effect, 100 complete control)
[12] = Preemergence, 500 g ai/ha, visual rating on 0 to 100 scale (0 no effect, 100 complete control)
[13] = 125 g ai/ha, visual rating on 0 to 100 scale (0 no effect, 100 complete control), approx. 10 days
[14] = Preemergence, 125 g ai/ha, visual rating on 0 to 100 scale (0 no effect, 100 complete control)
[15] = 125 g ai/ha, 0 to 100 scale, 0 no effect, 100 complete control

Compound	Plant response rating, Ducksalad (ducksalad; [2])	Plant response rating, Ducksalad (ducksalad; [3])	Plant response rating, Ducksalad (ducksalad; 250 g ai/ha, scale 0 to 100)	Plant response rating, Barnyardgrass (barnyardgrass; [2])	Plant response rating, Barnyardgrass (barnyardgrass; [3])	Plant response rating, Barnyardgrass (barnyardgrass; 250 g ai/ha, scale 0 to 100)	Plant response rating, Velvetleaf (velvetleaf; [4])	Plant response rating, Velvetleaf (velvetleaf; [5])	Velvetleaf plant response rating (velvetleaf; 125 g ai/ha)	Plant response rating, Velvetleaf (velvetleaf; [6])	Plant response rating, Morningglory (morningglory; [4])	Plant response rating, Morningglory (morningglory; [5])	Morningglory plant response rating (morningglory; 125 g ai/ha)	Plant response rating, Morningglory (morningglory; [6])	Plant response rating, Rice (rice; [2])	Plant response rating, Rice (rice; [3])	Plant response rating, Rice (rice; 250 g ai/ha, scale 0 to 100)	Plant response rating, Sedge, Umbrella (sedge, umbrella; [2])	Plant response rating, Sedge, Umbrella (sedge, umbrella; [3])	Plant response rating, Sedge, Umbrella (sedge, umbrella; 250 g ai/ha, scale 0 to 100)	other results
O=C1NCC(c2ccc(Cl)c(F)c2)C1C(=O)Nc1cccc(F)c1F (stereo not shown) [Compound 52]	40	75	95	0	0	0	0	0	0	20	0	0	0	0	10	10	15	40	50	75	Plant response rating, Ducksalad (ducksalad; [1]): 40; Plant response rating, Barnyardgrass (barnyardgrass; [1]): 0; Plant response rating, Rice (rice; [1]): 10; Plant response rating, Sedge, Umbrella (sedge, umbrella; [1]): 0
O=C1NCC(c2ccc(F)c(C(F)(F)F)c2)C1C(=O)Nc1cccc(F)c1F (racemic) [Compound 77]			95			20	20	40	0	0	0	30	20	60			0			0	Plant response rating, Ducksalad (ducksalad; 500 g ai/ha, scale 0 to 100): 100; Plant response rating, Ducksalad (ducksalad; 1000 g ai/ha, scale 0 to 100): 100; Plant response rating, Ducksalad (ducksalad; 2000 g ai/ha, scale 0 to 100): 100; Plant response rating, Barnyardgrass (barnyardgrass; 500 g ai/ha, scale 0 to 100): 30; Plant response rating, Barnyardgrass (barnyardgrass; 1000 g ai/ha, scale 0 to 100): 40; Plant response rating, Barnyardgrass (barnyardgrass; 2000 g ai/ha, scale 0 to 100): 70; Plant response rating, Rice (rice; 500 g ai/ha, scale 0 to 100): 0; Plant response rating, Rice (rice; 1000 g ai/ha, scale 0 to 100): 20; Plant response rating, Rice (rice; 2000 g ai/ha, scale 0 to 100): 60; Plant response rating, Sedge, Umbrella (sedge, umbrella; 500 g ai/ha, scale 0 to 100): 0; Plant response rating, Sedge, Umbrella (sedge, umbrella; 1000 g ai/ha, scale 0 to 100): 20; Plant response rating, Sedge, Umbrella (sedge, umbrella; 2000 g ai/ha, scale 0 to 100): 40
O=C1NCC(c2ccc(F)c(F)c2)C1C(=O)Nc1cccc(F)c1F (racemic) [Compound 101]		90	95		20	55	50	70	30	40	30	60	0	50		0	0		0	0	Plant response rating, Ducksalad (ducksalad; 500 g ai/ha, scale 0 to 100): 100; Plant response rating, Ducksalad (ducksalad; 1000 g ai/ha, scale 0 to 100): 100; Plant response rating, Barnyardgrass (barnyardgrass; 500 g ai/ha, scale 0 to 100): 60; Plant response rating, Barnyardgrass (barnyardgrass; 1000 g ai/ha, scale 0 to 100): 75; Plant response rating, Rice (rice; 500 g ai/ha, scale 0 to 100): 0; Plant response rating, Rice (rice; 1000 g ai/ha, scale 0 to 100): 10; Plant response rating, Sedge, Umbrella (sedge, umbrella; 500 g ai/ha, scale 0 to 100): 0; Plant response rating, Sedge, Umbrella (sedge, umbrella; 1000 g ai/ha, scale 0 to 100): 0
O=C1NCC(c2ccc(Cl)c(Cl)c2)C1C(=O)Nc1ccccc1F (racemic) [Compound 14]	40		85	0		0	0	90	0	0	0	0	0	0	0		0	0		20	
O=C1NCC(c2ccccc2)C1(Br)C(=O)Nc1ccccc1F (stereo not shown) [Compound 93, 3-bromo-N-(2-fluorophenyl)-2-oxo-4-phenyl-3-pyrrolidinecarboxamide]	0	0	85	0	0	40			0				0		20	20	30	0	0	100	Plant response rating, Ducksalad (ducksalad; [1]): 0; Plant response rating, Barnyardgrass (barnyardgrass; [1]): 0; pest or weed control at 125 g/ha (velvetleaf; Abutilon theophrasti, post-emergence, 240 h, Postemergence, 125 g ai/ha, 0 to 100 scale, 0 no effect, 100 complete control, read-out: Plant response rating, Velvetleaf): 0%; pest or weed control at 500 g/ha (velvetleaf; Abutilon theophrasti, post-emergence, 240 h, Postemergence, 500 g ai/ha, 0 to 100 scale (0 no effect, 100 complete control), read-out: Plant response rating, Velvetleaf): 0%; pest or weed control at 500 g/ha (velvetleaf; Abutilon theophrasti, pre-emergence, 240 h, preemergence, 500 g ai/ha, 0 to 100 scale, read-out: Plant response rating, Velvetleaf): 0%; pest or weed control at 125 g/ha (morningglory; Ipomoea, post-emergence, 240 h, Postemergence, 125 g ai/ha, 0 to 100 scale, 0 no effect, 100 complete control, read-out: Plant response rating, Morningglory): 0%; pest or weed control at 500 g/ha (morningglory; Ipomoea, post-emergence, 240 h, Postemergence, 500 g ai/ha, 0 to 100 scale (0 no effect, 100 complete control), read-out: Plant response rating, Morningglory): 0%; pest or weed control at 500 g/ha (morningglory; Ipomoea, pre-emergence, 240 h, preemergence, 500 g ai/ha, 0 to 100 scale, read-out: Plant response rating, Morningglory): 0%; Plant response rating, Rice (rice; [1]): 10; Plant response rating, Sedge, Umbrella (sedge, umbrella; [1]): 0
O=C1NCC(c2cc(F)cc(F)c2)C1C(=O)Nc1ccccc1Cl (racemic) [Compound 280]																					Plant response rating, Ryegrass, Italian (ryegrass, Italian; [7]): 0; Plant response rating, Ryegrass, Italian (ryegrass, Italian; [5]): 0; Plant response rating, Ryegrass, Italian (ryegrass, Italian; [8]): 0; Plant response rating, Ryegrass, Italian (ryegrass, Italian; [9]): 0; Plant response rating, Ragweed (ragweed; [7]): 0; Plant response rating, Ragweed (ragweed; [5]): 0; Plant response rating, Ragweed (ragweed; [8]): 0; Plant response rating, Ragweed (ragweed; [9]): 0; Plant response rating, Blackgrass (blackgrass; [10]): 0; Plant response rating, Blackgrass (blackgrass; [11]): 0; Plant response rating, Galium (galium; [10]): 0; Plant response rating, Galium (galium; [11]): 0
O=C1NCC(c2cccc(C(F)(F)F)c2)C1C(=O)Nc1ccc(F)c(F)c1F (stereo not shown) [Compound 345]																					Plant response rating, Ryegrass, Italian (ryegrass, Italian; [7]): 50; Plant response rating, Ryegrass, Italian (ryegrass, Italian; [8]): 0; Ryegrass, Italian plant response rating (ryegrass, Italian; [12]): 40; Plant response rating, Ragweed (ragweed; [7]): 0; Plant response rating, Ragweed (ragweed; [8]): 0; Ragweed plant response rating (ragweed; [12]): 0; Plant response rating, Blackgrass (blackgrass; [13]): 50; Plant response rating, Blackgrass (blackgrass; [11]): 60; Plant response rating, Galium (galium; [13]): 60
Cc1ccccc1NC(=O)C1C(=O)NCC1c1cccc(C(F)(F)F)c1 (racemic) [Compound 109]																					Plant response rating, Ryegrass, Italian (ryegrass, Italian; [4]): 20; Plant response rating, Ryegrass, Italian (ryegrass, Italian; [5]): 30; Ryegrass, Italian plant response rating (ryegrass, Italian; [14]): 0; Plant response rating, Ryegrass, Italian (ryegrass, Italian; [6]): 50; Plant response rating, Ragweed (ragweed; [4]): 0; Plant response rating, Ragweed (ragweed; [5]): 0; Ragweed plant response rating (ragweed; [14]): 0; Plant response rating, Ragweed (ragweed; [6]): 0; Plant response rating, Blackgrass (blackgrass; [15]): 50; Plant response rating, Blackgrass (blackgrass; [11]): 80; Plant response rating, Galium (galium; [15]): 30; Plant response rating, Galium (galium; [11]): 60
